Measured values from patent EP2322149A1, “Methods and compositions for the treatment of ischemia” (Universidad del Pais Vasco, priority 2009, dated 2011).
“Also recorded” adds a separate entry of the source. Counter-ions that a name gives are not always drawn.

Assays:
[1] = system: optic nerve oligodendrocytes; assay: Mitochondrial membrane potential (JC-1) after OGD in oligodendrocyte cultures; format: cell-based, Sprague-Dawley rats; settings: 1 h OGD; BBG 50 nM, PPADS 100 µM
Protocol: (§1) Primary cultures of oligodendrocytes derived from optic nerves of 12 day-old Sprague-Dawley rats were obtained as previously described (Matute et al., 1997 Proc Natl Acad Sci U S A 94:8830-8835.).Cells were maintained at 37°C and 5% CO2 in a chemically defined medium (Matute et al., 1997 Proc Natl Acad Sci U S A 94:8830-8835.). After 2-4 days in vitro, cultures were composed of at least 98% 04/Ga1C^+ cells. No microglial cells were detected in these cultures. […] Cell death was determined 24h later using calcein-AM (Invitrogen) as previously described (Matute et al., 1997 Proc Natl Acad Sci U S A 94:8830-8835.). Antagonists were present during in vitro ischaemia and during the next 24h incubation period. […] Calcein was used to quantify the number of cells within the reading field. Fluorescence was measured as above and values were plotted as the percentage of DCFDA/calcein red-orange fluorescence versus control. The changes in mitochondrial membrane potential were monitored with 5,5',6,6'-tetrachloro-1,1',3,3'-tetraethylbenzimidazolcarbocyanine iodide (JC-1; Molecular Probes). […] The changes in the membrane potential were calculated as the red (emission at 590)/green (emission at 520) ratio in each condition and results were normalized to control.

optic nerves = assay: Optic nerve ischaemia (OGD), tissue damage by LDH release; parameters: species or system rats; settings: P28 rat optic nerves, 1h OGD + 2h reperfusion; PPADS 1 mM, BBG 50 nM, oATP 1 mM, apyrase 20 U/ml, MFQ 1 µM, CBX 100 µM, FFA 1 mM
Protocol: (§2) After 1h OGD at 37°C, the medium was replaced with fresh solution containing glucose and equilibrated with 95% O2, 5% CO2 and the nerves were incubated for another 2h at 37°C to simulate reperfusion.

[2] = system: optic nerve oligodendrocytes; assay: Oxygen and glucose deprivation (OGD) cell death in oligodendrocyte cultures (calcein-AM); format: cell-based, Sprague-Dawley rats; settings: 1h OGD, calcein 24h later; PPADS 100 µM, BBG 50 nM, CNQX 30 µM, APV 100 µM, apyrase 20 U/ml, ARL67156 100 µM, CBX 20 µM, FFA 100 µM, MFQ 1 nM
Protocol: (§3) Primary cultures of oligodendrocytes derived from optic nerves of 12 day-old Sprague-Dawley rats were obtained as previously described (Matute et al., 1997 Proc Natl Acad Sci U S A 94:8830-8835.).Cells were maintained at 37°C and 5% CO2 in a chemically defined medium (Matute et al., 1997 Proc Natl Acad Sci U S A 94:8830-8835.). After 2-4 days in vitro, cultures were composed of at least 98% 04/Ga1C^+ cells. No microglial cells were detected in these cultures. […] Cell death was determined 24h later using calcein-AM (Invitrogen) as previously described (Matute et al., 1997 Proc Natl Acad Sci U S A 94:8830-8835.). Antagonists were present during in vitro ischaemia and during the next 24h incubation period. […] To assay the levels of reactive oxygen species (ROS), cells were loaded with 40 µM 2',7'- dichlorodihyfluoresceindiacetate (DCFDA; Invitrogen) and 1 µM calcein red-orange (Molecular Probes) immediately after OGD. Calcein was used to quantify the number of cells within the reading field. Fluorescence was measured as above and values were plotted as the percentage of DCFDA/calcein red-orange fluorescence versus control. The changes in mitochondrial membrane potential were monitored with 5,5',6,6'-tetrachloro-1,1',3,3'-tetraethylbenzimidazolcarbocyanine iodide (JC-1; Molecular Probes). Immediately after OGD, cells were loaded with JC-1 (3 µM) at 37°C for 30 min. The changes in the membrane potential were calculated as the red (emission at 590)/green (emission at 520) ratio in each condition and results were normalized to control.

P2X6 = P2X6 (Homo sapiens, UniProt O15547); settings: read-out: IC50 P2X6; cited from earlier work
P2X6, sequence (O15547 whole entry, species assumed): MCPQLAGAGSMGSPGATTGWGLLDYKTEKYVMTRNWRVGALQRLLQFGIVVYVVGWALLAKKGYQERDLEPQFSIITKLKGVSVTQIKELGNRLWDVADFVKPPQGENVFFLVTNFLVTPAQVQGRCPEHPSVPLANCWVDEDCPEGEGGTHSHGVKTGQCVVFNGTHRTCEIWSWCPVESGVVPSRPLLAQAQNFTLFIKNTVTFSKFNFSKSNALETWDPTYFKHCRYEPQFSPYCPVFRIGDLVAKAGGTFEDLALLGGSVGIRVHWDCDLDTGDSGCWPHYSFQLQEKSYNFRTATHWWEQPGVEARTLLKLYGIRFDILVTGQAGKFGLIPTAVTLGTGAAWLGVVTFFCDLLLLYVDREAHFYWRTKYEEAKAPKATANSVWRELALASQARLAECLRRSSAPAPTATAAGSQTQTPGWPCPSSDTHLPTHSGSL

[3] = system: optic nerve oligodendrocytes; assay: Whole-cell recording of ischaemic inward current in cultured oligodendrocytes (chemical ischaemia); format: cell-based, Sprague-Dawley rats
Protocol: After 2-4 days in vitro, cultures were composed of at least 98% 04/Ga1C^+ cells. No microglial cells were detected in these cultures. […] Cell death was determined 24h later using calcein-AM (Invitrogen) as previously described (Matute et al., 1997 Proc Natl Acad Sci U S A 94:8830-8835.). Antagonists were present during in vitro ischaemia and during the next 24h incubation period. […] Calcein was used to quantify the number of cells within the reading field. Fluorescence was measured as above and values were plotted as the percentage of DCFDA/calcein red-orange fluorescence versus control. […] Molecular Probes). […] The changes in the membrane potential were calculated as the red (emission at 590)/green (emission at 520) ratio in each condition and results were normalized to control. Whole cell recordings were performed at room temperature and at a holding membrane potential of -70 mV. Extracellular bath solution with a pH of 7.3 contained (in mM): […] Patch clamp pipettes (3-5 MΩ) were filled with internal solution at a pH of 7.3 containing (in mM): CsCI 140, CaC12 2, MgC12 2, HEPES 10, EGTA 11, Na-ATP 2. For electrophysiology monitoring, ischaemia was induced chemically by using the glycolytic blocker iodoacetate (1 mM) and the oxidative phosphorylation inhibitor antimycin (2.5 μM), and omitting glucose because recordings were performed in an open chamber where O2 can diffuse to the cells (Káradóttir et al., 2005). Recordings of ATP currents were performed in divalent cation-free extracellular solutions, obtained by omitting Ca^2+ and Mg^2+, to potentiate P2X-mediated responses (Matute et al., 1997 Proc Natl Acad Sci U S A 94:8830-8835.). […] Molecular Probes, Inc., Eugene, OR) in culture medium for 30 min at 37 °C. Experiments were carried out in a coverslip chamber continuously perfused with a buffer containing 20 mM HEPES, 2 mM CaC12, 10 mM glucose in HBSS at 1 ml/min. The perfusion chamber was mounted on the stage of a Zeiss inverted epifluorescence microscope (Axiovert 35), equipped with a 150 W xenon lamp Polychrome IV (TILL Photonics GMBH) and a Plan Neofluar 40x oil immersion objective (Zeiss, Germany). Cells were visualized with a high resolution digital B/W CCD camera (ORCA; Hamamatsu Photonics Iberica, Barcelona, Spain) and image acquisition and data analysis were carried out using the AquaCosmos software program (Hamamatsu Photonics Iberica). Images were acquired every 30 ms at 37°C and ischaemia was induced as above. […] At the end of the assay, in situ calibration was carried out with the successive addition of […] and 2M Tris/50 mM EGTA, pH 8.5. Data were analyzed with Excel and Prism software.

P2X1 = target: T1, P2X1 (Homo sapiens, UniProt P51575); settings: read-out: IC50 P2X1; cited from earlier work
T1 sequence (P51575 1-399): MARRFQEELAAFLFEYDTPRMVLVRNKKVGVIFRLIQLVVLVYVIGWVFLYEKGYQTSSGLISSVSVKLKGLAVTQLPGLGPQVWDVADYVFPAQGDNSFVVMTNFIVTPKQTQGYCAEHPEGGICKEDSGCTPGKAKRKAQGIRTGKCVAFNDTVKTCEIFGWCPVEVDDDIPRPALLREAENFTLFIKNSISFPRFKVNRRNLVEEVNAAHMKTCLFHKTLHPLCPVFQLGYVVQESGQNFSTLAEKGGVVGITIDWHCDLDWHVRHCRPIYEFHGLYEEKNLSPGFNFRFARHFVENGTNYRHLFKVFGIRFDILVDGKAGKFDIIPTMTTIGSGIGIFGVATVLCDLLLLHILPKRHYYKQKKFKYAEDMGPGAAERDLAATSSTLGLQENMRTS

[4] = system: optic nerve oligodendrocytes; assay: Reactive oxygen species (DCFDA) after OGD in oligodendrocyte cultures; format: cell-based, Sprague-Dawley rats; settings: 1 h OGD; BBG 50 nM, PPADS 100 µM
Protocol: as §1

[5] = system: optic nerve oligodendrocytes; assay: Ca2+ imaging (fura-2) of oligodendrocytes during chemical ischaemia; format: cell-based, Sprague-Dawley rats; settings: chemical ischaemia; PPADS 100 µM, oATP 1 mM
Protocol: After 2-4 days in vitro, cultures were composed of at least 98% 04/Ga1C^+ cells. No microglial cells were detected in these cultures. […] Cell death was determined 24h later using calcein-AM (Invitrogen) as previously described (Matute et al., 1997 Proc Natl Acad Sci U S A 94:8830-8835.). Antagonists were present during in vitro ischaemia and during the next 24h incubation period. […] Calcein was used to quantify the number of cells within the reading field. Fluorescence was measured as above and values were plotted as the percentage of DCFDA/calcein red-orange fluorescence versus control. […] Molecular Probes). […] The changes in the membrane potential were calculated as the red (emission at 590)/green (emission at 520) ratio in each condition and results were normalized to control. Whole cell recordings were performed at room temperature and at a holding membrane potential of -70 mV. Extracellular bath solution with a pH of 7.3 contained (in mM): […] Patch clamp pipettes (3-5 MΩ) were filled with internal solution at a pH of 7.3 containing (in mM): CsCI 140, CaC12 2, MgC12 2, HEPES 10, EGTA 11, Na-ATP 2. […] Data were analyzed with Excel and Prism software.

[6] = system: AMPA and kainate receptors; assay: Glutamate receptor agonist (AMPA, kainate) induced oligodendrocyte death (calcein fluorescence); format: cell-based, Sprague-Dawley rats; settings: AMPA (100 µM) + cyclothiazide (100 µM), or kainate (3 mM) + GYKI 53655 (50 µM); PPADS 100 µM, BBG 50 nM
Protocol: as §1

[7] = system: cultured optic nerve oligodendrocytes; assay: ATP release measurement (luciferin/luciferase) in oligodendrocyte cultures after OGD; format: cell-based, Sprague-Dawley rats; settings: 1h OGD in the presence of ARL67156; CBX 20 µM, FFA 100 µM, MFQ 1 nM (figure legend)
Protocol: as §3
(§4) ATP levels were measured using a Luciferin/Luciferase assay kit (Invitrogen) after 1h normoxia or OGD in oligodendrocyte cultures and in isolated optic nerves according to the manufacturer's instructions. The luminescence was measured with a luminometer Synergy-HT (BioTek) with an integration time of 3 sec. Because ATP was measured in the culture medium and in the solution bathing optic nerves, the concentration of ATP at the extracellular surface, near the vicinity of the receptor was underestimated (Joseph et al., 2003. J Biol Chem 278:23331-23342). The limit of ATP detection was 1 nM and luminescence was linear with increasing ATP concentrations to 1000 nM. The total amount of ATP was calculated according to standard curves and ATP release was expressed in percentage vs control.

optic nerve = assay: ATP release measurement (luciferin/luciferase) in isolated optic nerves after OGD; parameters: species or system rats; settings: MFQ 1 µM, CBX 100 µM
Protocol: as §4, §2

[8] = target: T2, P2X7 receptors in oligodendrocytes (Rattus norvegicus, UniProt Q64663); assay: ATP-evoked inward currents in whole-cell clamped oligodendrocytes; format: cell-based, Sprague-Dawley rats; settings: -70 mV; CBX 20 µM, MFQ 1 nM
T2 construct: ATP (1 mM)-evoked inward currents in whole-cell clamped oligodendrocytes at -70 mV; endogenous in cells; host or cells: primary rat optic nerve oligodendrocytes
T2 sequence (Q64663 1-595): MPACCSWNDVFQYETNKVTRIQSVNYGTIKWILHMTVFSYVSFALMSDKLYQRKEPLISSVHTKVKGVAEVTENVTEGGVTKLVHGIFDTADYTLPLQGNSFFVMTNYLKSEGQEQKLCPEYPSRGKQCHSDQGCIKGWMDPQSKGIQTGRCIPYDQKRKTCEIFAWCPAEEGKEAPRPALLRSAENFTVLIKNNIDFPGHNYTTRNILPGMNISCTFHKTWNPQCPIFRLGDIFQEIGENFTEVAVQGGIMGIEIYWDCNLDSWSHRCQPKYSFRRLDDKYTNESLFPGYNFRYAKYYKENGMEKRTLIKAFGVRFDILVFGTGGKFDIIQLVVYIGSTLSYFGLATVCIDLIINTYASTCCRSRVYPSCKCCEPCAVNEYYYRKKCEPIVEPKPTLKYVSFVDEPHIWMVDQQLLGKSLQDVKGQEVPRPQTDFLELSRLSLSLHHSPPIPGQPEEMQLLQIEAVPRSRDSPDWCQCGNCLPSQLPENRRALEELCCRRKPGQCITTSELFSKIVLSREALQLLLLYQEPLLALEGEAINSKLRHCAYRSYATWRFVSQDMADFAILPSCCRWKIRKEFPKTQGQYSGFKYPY
Protocol: as §1, with “94:8830-8835.).” for “94:8830-8835.). Antagonists were present during in vitro ischaemia and during the next 24h incubation period.”
Whole cell recordings were performed at room temperature and at a holding membrane potential of -70 mV. […] Data were analyzed with Excel and Prism software.

ATP levels after OGD [7] | ATP levels during OGD (optic nerve) | ATP (1 mM)-evoked inward currents [8] | SMILES | mitochondrial depolarization [1] | ischaemia-induced damage to optic nerves (LDH release) (optic nerves) | OGD-induced oligodendrocyte cell death [2] | IC50 (P2X6) [µM] | OGD currents after drug application versus OGD currents before drug application ([3]; after washing the antagonists out, average over BBG and PPADS, n= 15) [%] | ischaemic inward currents ([3]; chemical ischaemia (iodoacetate, antimycin, no glucose), -70 mV, PPADS 100 µM, oATP 1 mM, BBG 50 nM) | IC50 (P2X1) [µM] | generation of radical oxygen species (ROS) [4] | increase in [Ca2+]i caused by ischaemia [5] | glutamate receptor-induced oligodendrocyte death [6]
 |  |  | Cc1nc(N=Nc2ccc(S(=O)(=O)O)cc2S(=O)(=O)O)c(COP(=O)(O)O)c(C=O)c1O [PPADS, tetrasodium salt of pyridoxalphosphate-6-azophenyl-2',4'-disulfonic acid] | prevented | prevented; also recorded: reduced | significantly reduced | > 100 | 134 ± 32 | significantly reduced | 1 to 5 | prevented | significantly blocked; also recorded: significantly reduced | did not significantly inhibit
significantly reduced | reduced | not reduced | CC1(C)[C@@H](OC(=O)CCC(=O)O)CC[C@]2(C)[C@H]3C(=O)C=C4[C@@H]5C[C@@](C)(C(=O)O)CC[C@]5(C)CC[C@@]4(C)[C@]3(C)CC[C@@H]12 [CBX] |  | reduced; also recorded: attenuated | inhibited |  |  |  |  |  |  | 
significantly reduced | reduced | not reduced | OC(c1cc(C(F)(F)F)nc2c(C(F)(F)F)cccc12)C1CCCCN1 [MFQ, [8-bis(trifluoromethyl)quinolin-4-yl]-[(2R)-piperidin-2-yl]methanol] |  | reduced; also recorded: attenuated | inhibited |  |  |  |  |  |  | 
